Measurements published in PubChem BioAssay (NCI).
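96-well plates; 48 h exposure; 5 concentrations. Endpoints by linear interpolation between flanking doses. Not reached: highest tested concentration assigned. TGI is the concentration that stops growth completely.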

Tests used:
Assay in all cases: growth of human tumour cells (NCI), 48 h
[1] = system: SK-MEL-28 melanoma
[2] = system: OVCAR-5 ovarian
[3] = system: UACC-257 melanoma
[4] = system: MDA-MB-231 breast
[5] = system: OVCAR-3 ovarian
[6] = system: K-562 leukemia
[7] = system: HCC-2998 colon
[8] = system: U251 CNS
[9] = system: M14 melanoma
[10] = system: PC-3 prostate
[11] = system: HCT-116 colon
[12] = system: IGROV1 ovarian
[13] = system: OVCAR-8 ovarian
[14] = system: HL-60(TB) leukemia

Row | Compound | TGI [1] | TGI [2] | TGI [3] | TGI [4] | TGI [5] | TGI [6] | TGI [7] | TGI [8] | TGI [9] | TGI [10] | TGI [11] | TGI [12] | TGI [13] | TGI [14]
1 | O=C(CSc1nc2[nH]ncc2c(=O)[nH]1)c1ccc(Cl)cc1 | > 100 µM | > 100 µM | > 100 µM | > 100 µM | > 100 µM | > 100 µM | > 100 µM | > 100 µM | > 100 µM | > 100 µM | > 100 µM | > 100 µM | > 100 µM | 
2 | CC1(C)C(O)C[C@@H](O)[C@@]2(C)C1CC[C@]1(C)C2C[C@@H](O)[C@@H]2C([C@@]3(C)CC[C@@H](C(C)(C)O)O3)CCC21C (stereo partly specified) | 27.1 µM | 30.7 µM | > 54.1 µM |  | 29.4 µM | > 100 µM | 31.4 µM | 25.5 µM | 27.7 µM |  | 30.9 µM | 28.1 µM | 36.6 µM | > 55 µM
3 | CO/N=C(\C(=O)N(C)n1cnnc1)c1csc(NC(c2ccccc2)(c2ccccc2)c2ccccc2)n1 | > 10 µM | > 10 µM | > 10 µM |  | > 10 µM | > 10 µM | > 10 µM | > 10 µM | > 10 µM | > 10 µM | > 10 µM | > 10 µM | > 10 µM | > 10 µM
4 | O=C1NC(=O)C2(CCCCCC2)N1 | > 100 µM | > 100 µM | > 100 µM | > 100 µM | > 100 µM | > 100 µM |  | > 100 µM | > 100 µM | > 100 µM | > 100 µM | > 100 µM | > 100 µM | 
5 | CC(=O)CSc1c(-c2ccccc2)c(=O)n(-c2ccccc2)c(=S)n1-c1ccccc1 | > 100 µM | > 100 µM | > 100 µM |  | > 100 µM | > 100 µM |  | > 100 µM | > 100 µM | > 100 µM | > 100 µM | > 100 µM | > 100 µM | > 100 µM
6 | CO[C@@H]1C=C[C@@]23c4cc5c(cc4C(=O)O[C@H]2CN(C)[C@H]3C1)OCO5 | > 100 µM | > 100 µM | > 100 µM |  | > 100 µM | > 100 µM | > 100 µM | > 100 µM | > 100 µM |  | > 100 µM | > 100 µM | > 100 µM | > 100 µM
7 | c1ccc(CNCCCCNCCCNCc2ccccc2)cc1 | 31.2 µM | > 100 µM | 32 µM | 33.2 µM | 54.7 µM | 34.2 µM | 31.3 µM | 35.7 µM | 86.5 µM | 28.8 µM | 32.2 µM | 26.7 µM |  | 
8 | CC1=CC[C@@]2(CO)[C@@H]([C@@H]1C)[C@H]1CC[C@@H]3[C@@]4(C)CC[C@H](O)C(C)(C)[C@@H]4CC[C@@]3(C)[C@]1(C)C[C@@H]2O | > 100 µM | > 100 µM | > 100 µM |  | > 100 µM | > 100 µM |  | 46.7 µM | > 100 µM | > 100 µM | > 100 µM | 82.3 µM | 55 µM | > 100 µM
9 | CCOC(=O)[C@@]12C[C@](/C=C/OC)(O[Si](C)(C)C)[C@@]13c1cc(OC)c(OC)cc1CCN3C(=O)C2O (stereo partly specified) | > 100 µM | > 100 µM | > 100 µM | > 100 µM | > 100 µM | > 100 µM |  | > 100 µM | > 100 µM | > 100 µM | > 100 µM | > 100 µM | > 100 µM | 
10 | Clc1cc(Cl)cc(C2ON=C(c3ccccc3)N2C23CC4CC(CC(C4)C2)C3)c1 (stereo unspecified) | > 10 µM | > 10 µM | > 10 µM | > 10 µM | > 10 µM | > 10 µM | > 10 µM | > 10 µM | > 10 µM | > 10 µM | > 10 µM | > 10 µM | > 10 µM | 
11 | O=C(O)c1ccc(NC(NC(=O)C(C(F)(F)F)C(F)(F)F)(C(F)(F)F)C(F)(F)F)cc1 | > 100 µM | > 100 µM | > 100 µM |  |  | > 100 µM | > 100 µM | > 100 µM | > 100 µM | > 100 µM | > 100 µM | > 100 µM | > 100 µM | > 100 µM
12 | CCOc1ccc(N/C(Cl)=C(Cl)\C(=C(\Nc2ccc(OCC)cc2)n2nnc3ccccc32)[N+](=O)[O-])cc1 | 20.9 µM | 27 µM | 28.6 µM | 15.6 µM | 20.3 µM | > 21.6 µM | 46.6 µM | 22 µM | 17.3 µM | 21.6 µM | 5.29 µM | 5.33 µM | 3.46 µM | 
13 | Cc1cc(S(=O)(=O)Nc2cc(N)[nH]n2)c(SCc2nc(N)nc(N(C)C)n2)cc1Cl | > 10 µM | > 10 µM | > 10 µM |  | > 10 µM | > 10 µM | > 10 µM | > 10 µM | > 10 µM | > 10 µM | > 10 µM | > 10 µM | > 10 µM | > 10 µM
14 | Cc1ccc(S(=O)(=O)N2CCSCCN(S(=O)(=O)c3ccc(C)cc3)CCN(S(=O)(=O)c3ccc(C)cc3)CC2)cc1 | > 100 µM | > 100 µM |  | 59.5 µM | > 100 µM | > 100 µM | > 100 µM | 90.1 µM | > 100 µM |  | > 100 µM | > 100 µM | > 100 µM | > 100 µM
15 | CCc1n[nH]c(=O)n1/N=C/c1ccc(C)cc1 | > 100 µM | > 100 µM | > 100 µM | > 100 µM | > 100 µM | > 100 µM | > 100 µM | > 100 µM |  |  | > 100 µM | > 100 µM | > 100 µM | > 100 µM
16 | CCN(CC)CCNC(=O)c1cc2cc(NC(=O)c3cc4cc(NC(=O)c5cc6cc(N)ccc6[nH]5)ccc4[nH]3)ccc2[nH]1 | > 100 µM | > 100 µM | > 100 µM | > 100 µM | > 100 µM | > 100 µM | > 100 µM | > 100 µM | > 100 µM | > 100 µM |  | > 100 µM | > 100 µM | 
17 | CC(C)=NNC=N/C(C#N)=C(\N)C#N | > 100 µM | > 100 µM | > 100 µM |  | > 100 µM | > 100 µM | 1.21 µM | > 100 µM | > 100 µM | > 100 µM | > 100 µM | > 100 µM | > 100 µM | > 100 µM
18 | Cc1nnc2sc(NN)nn12 | > 100 µM | > 100 µM | > 100 µM | > 100 µM | > 100 µM | > 100 µM |  | > 100 µM | > 100 µM | > 100 µM | > 100 µM | > 100 µM | > 100 µM | 
19 | COC1=CCC=C(C[C@@H]2NCCc3cc(OC)c(OC)cc32)C1 | > 100 µM | > 100 µM | > 100 µM |  | > 100 µM | > 100 µM | > 100 µM | > 100 µM | > 100 µM |  | > 100 µM | > 100 µM | > 100 µM | > 100 µM
20 | NC(=S)N/N=C1\NC(=O)/C(=C/c2ccc3c(c2)OCO3)S1 | 78.7 µM | 73.1 µM | 76.1 µM | 77.1 µM | 45.7 µM |  | > 100 µM | 57.7 µM | 68.3 µM |  | 85 µM | 49.4 µM | 78 µM | 63.3 µM
21 | CCOC(=O)[C@@]12C3C=CC(CC3)[C@]1(C(=O)c1ccccc1)C(=O)C(=O)N2c1ccccc1 (stereo partly specified) | > 100 µM | > 100 µM |  | > 100 µM | > 100 µM | > 100 µM | > 100 µM | > 100 µM | > 100 µM | > 100 µM | > 100 µM |  | > 100 µM | 
22 | O=C(O)CCc1ccc2c(c1)C(=O)CC2 | > 100 µM | > 100 µM | > 100 µM | > 100 µM | > 100 µM | > 100 µM | > 100 µM | > 100 µM | > 100 µM |  | > 100 µM | > 100 µM | > 100 µM | > 100 µM
23 | CC(C)(C)OC(=O)NCCc1cccc2c1oc1c(CCC(=O)O)cccc12 | > 100 µM | > 100 µM | > 100 µM |  | > 100 µM | > 100 µM | > 100 µM | > 100 µM | > 100 µM |  | > 100 µM | > 100 µM | > 100 µM | > 100 µM
24 | Oc1ccc(N=C2CCC(=C(c3ccccc3)c3ccc(Nc4ccc(O)cc4)cc3)CC2)cc1 | > 100 µM | > 100 µM | > 100 µM | > 100 µM |  | > 100 µM | > 100 µM | > 100 µM | > 100 µM | > 100 µM | > 100 µM |  | > 100 µM | 
25 | N#C/C(C(=O)Nc1ccc(Cl)cc1)=C(/N)N1CCCCC1 | > 100 µM | > 100 µM | > 100 µM |  | > 100 µM | > 100 µM | > 100 µM | > 100 µM | > 100 µM | > 100 µM | > 100 µM | > 100 µM | > 100 µM | > 100 µM
26 | CCc1c(Cc2[nH]c(Cc3[nH]c(C=O)c(C)c3CC)c(CC)c2CC)[nH]c(C=O)c1C | > 100 µM |  | > 1 µM |  | > 100 µM | > 100 µM | > 100 µM | > 100 µM | > 100 µM |  | > 100 µM |  | > 100 µM | > 100 µM
